Values after ≈ are worked out from the molar mass of the structure shown.
How the values were obtained:
Assay in all cases: ≥ marks a high value that may be exact or a test limit, other limits are often not marked, values filed in µg/mL are converted to µM
Escherichia coli 170 = test system: Escherichia coli 170
[1] = test system: Acinetobacter baumannii 5821
[2] = test system: Pseudomonas aeruginosa 5106
Escherichia coli 5509 = test system: Escherichia coli 5509
[3] = test system: Enterobacter cloacae 14-262
[4] = test system: Escherichia coli ATCC 25922
[5] = test system: Pseudomonas aeruginosa ATCC 27853
[6] = test system: Enterobacter cloacae 06-267
[7] = test system: Staphylococcus aureus ATCC 29213
[8] = test system: Klebsiella pneumoniae 01-252
[9] = test system: Klebsiella pneumoniae 01-239
Escherichia coli 09-280 = test system: Escherichia coli 09-280
[10] = test system: Pseudomonas aeruginosa ATCC 9027
Escherichia coli 09-240 = test system: Escherichia coli 09-240
[11] = test system: Pseudomonas aeruginosa 3599
[12] = test system: Staphylococcus aureus 01-001
[13] = test system: Staphylococcus aureus 06-051
[14] = test system: Bacillus subtilis ATCC 6633
[15] = test system: Staphylococcus aureus Cowan 1
[16] = test system: Proteus vulgaris OX19 ATCC 6380
[17] = test system: Shigella flexneri ATCC 203
[18] = test system: Pseudomonas aeruginosa OT97
Bacillus megaterium Bm11 = test system: Bacillus megaterium Bm11
Escherichia coli D21 = test system: Escherichia coli D21
[19] = test system: Staphylococcus aureus JC-1
[20] = test system: Legionella oakridgensis ATCC 33761
[21] = test system: Legionella pneumophila ATCC 33216
[22] = test system: Legionella micdadei ATCC 33218
[23] = test system: Legionella pneumophila ATCC 33155
[24] = test system: Legionella bozemanae ATCC 33217
Bacillus megaterium F04 = test system: Bacillus megaterium F04
[25] = test system: Legionella pneumophila Corby
[26] = test system: Legionella feeleii ATCC 35072
[27] = test system: Legionella pneumophila Lens
[28] = test system: Legionella pneumophila ATCC 33215
[29] = test system: Legionella pneumophila Paris
[30] = test system: Legionella longbeachae ATCC 33484
[31] = test system: Enterobacter cloacae AB2010162
[32] = test system: Escherichia coli DH5alpha
[33] = test system: Staphylococcus aureus AB94004
Pseudomonas putida = test system: Pseudomonas putida
[34] = test system: Staphylococcus aureus 16472
[35] = test system: Salmonella enterica AB2010185
[36] = test system: Micrococcus luteus AB2010179
[37] = test system: Candida tropicalis AY91009
[38] = test system: Bacillus magaterium AB90008
[39] = test system: Klebsiella oxytoca AB2010143
Enterococcus sp. S13 = test system: Enterococcus sp. S13

CC[C@H](C)[C@H](NC(=O)[C@H](C)NC(=O)[C@H](CC(N)=O)NC(=O)[C@H](CCCCN)NC(=O)[C@@H](NC(=O)CNC(=O)[C@H](CCC(=O)O)NC(=O)[C@H](Cc1c[nH]c2ccccc12)NC(=O)[C@H](CC(C)C)NC(=O)[C@H](CCCCN)NC(=O)CNC(=O)[C@H](Cc1c[nH]c2ccccc12)NC(=O)[C@@H](N)Cc1ccccc1)C(C)C)C(N)=O [FWGKLWEGVKNAI]
MIC (Escherichia coli 170): ≥ 32 µM
MIC [1]: ≥ 38 µM
MIC [2]: ≥ 32 µM
MIC (Escherichia coli 5509): ≥ 32 µM
MIC [3]: ≥ 50 µM
MIC [4]: 25 µM (≈ 38.7 µg/mL)
MIC [5]: > 32 µM
MIC [6]: ≥ 32 µM
MIC [7]: 32 µM (≈ 49.5 µg/mL)
MIC [8]: ≥ 32 µM
MIC [9]: ≥ 50 µM
MIC (Escherichia coli 09-280): ≥ 32 µM
MIC [10]: 40 µM (≈ 61.9 µg/mL)
MIC (Escherichia coli 09-240): ≥ 50 µM
MIC [11]: ≥ 32 µM
MIC [12]: ≥ 32 µM
MIC [13]: ≥ 32 µM

CC[C@H](C)[C@H](NC(=O)[C@H](CCCCN)NC(=O)[C@@H](NC(=O)[C@@H](NC(=O)[C@H](CCC(N)=O)NC(=O)CNC(=O)[C@H](Cc1cnc[nH]1)NC(=O)[C@H](CCC(N)=O)NC(=O)[C@@H](N)CC(N)=O)C(C)C)C(C)C)C(=O)N[C@@H](Cc1ccccc1)C(=O)N[C@@H](Cc1cnc[nH]1)C(=O)N[C@@H](Cc1cnc[nH]1)C(=O)O [NQHGQVVKIFHH]
MIC [14]: ≥ 3200 µM
MIC [15]: ≥ 6000 µM
MIC [16]: ≥ 6000 µM
MIC [17]: ≥ 6000 µM
MIC [18]: ≥ 6000 µM
MIC (Bacillus megaterium Bm11): ≥ 800 µM
MIC (Escherichia coli D21): ≥ 3200 µM
MIC [19]: ≥ 1600 µM

CC[C@H](C)[C@H](NC(=O)[C@H](CC(C)C)NC(=O)[C@H](CC(=O)O)NC(=O)[C@@H](NC(=O)[C@@H](NC(=O)[C@H](Cc1ccccc1)NC(=O)[C@H](CCC(N)=O)NC(=O)[C@@H](N)CCSC)[C@@H](C)CC)[C@@H](C)O)C(=O)N[C@@H](CCCCN)C(=O)N[C@@H](CCCCN)C(=O)N[C@@H](C)C(=O)N[C@H](C(=O)N[C@@H](CC(=O)O)C(=O)N[C@@H](Cc1ccccc1)C(=O)N[C@@H](Cc1ccccc1)C(=O)N[C@@H](CCCCN)C(=O)NCC(=O)N[C@@H](CC(C)C)C(=O)N[C@@H](Cc1ccccc1)C(=O)NCC(=O)N[C@@H](CC(N)=O)C(=O)N[C@@H](CCCCN)C(=O)O)C(C)C [MQFITDLIKKAVDFFKGLFGNK]
MIC [20]: 19.5 µM (≈ 50 µg/mL)
MIC [21]: 19.5 µM (≈ 50 µg/mL)
MIC [22]: 19.5 µM (≈ 50 µg/mL)
MIC [23]: 19.5 µM (≈ 50 µg/mL)
MIC [24]: 19.5 µM (≈ 50 µg/mL)
MIC (Bacillus megaterium F04): 4.69 µM (≈ 12 µg/mL)
MIC [25]: 19.5 µM (≈ 50 µg/mL)
MIC [26]: 19.5 µM (≈ 50 µg/mL)
MIC [27]: 1.17 µM (≈ 3 µg/mL)
MIC [28]: 19.5 µM (≈ 50 µg/mL)
MIC [29]: 19.5 µM (≈ 50 µg/mL)
MIC [30]: 19.5 µM (≈ 50 µg/mL)

CC[C@H](C)[C@H](NC(=O)CN)C(=O)N[C@@H](CC(C)C)C(=O)NCC(=O)N[C@@H](CCCCN)C(=O)N[C@@H](CC(C)C)C(=O)N[C@@H](Cc1c[nH]c2ccccc12)C(=O)N[C@@H](CCC(=O)O)C(=O)NCC(=O)N[C@@H](Cc1ccccc1)C(=O)N[C@@H](CCCCN)C(=O)N[C@@H](CO)C(=O)N[C@H](C(=O)N[C@H](C(=O)O)C(C)C)[C@@H](C)CC [GILGKLWEGFKSIV]
MIC [31]: ≥ 76 µM
MIC [32]: ≥ 62 µM
MIC [33]: 8 µM (≈ 12.4 µg/mL)
MIC (Pseudomonas putida): ≥ 87 µM
MIC [34]: 14 µM (≈ 21.7 µg/mL)
MIC [35]: ≥ 72 µM
MIC [36]: ≥ 32 µM
MIC [37]: 16 µM (≈ 24.8 µg/mL)
MIC [38]: ≥ 32 µM
MIC [39]: ≥ 87 µM
MIC (Enterococcus sp. S13): 28 µM (≈ 43.3 µg/mL)

— DBAASP
